Measured values: US20250057808A1, “COMPOSITION COMPRISING BETA LACTAM FOR TREATING ALCOHOL DEPENDENCE AND ALCOHOL ASSOCIATED DISEASES OR CONDITIONS” (Temple University of the Commonwealth System of Higher …, priority 2023, published 2025)
pIC50: −log10 of the molar value. Entries after “also recorded” stand apart in the source; their conditions may differ.

Legend:
mGluR5 = assay: Western blot mGluR5 expression in NAc-core and NAc-shell; type: in vivo, P rats; conditions: MC-100093 50 mg/kg or ceftriaxone 200 mg/kg i.p. 5 days
Procedure: (§1) We used micro-punch procedure to dissect the subregions of the NAc such as NAc-core and NAc-shell as well as the subregions of prefrontal cortex such as infralimbic (IL) and prelimbic (PL) from the brain on day 6 after the last injection day. P rats were removed from the cage and rapidly euthanized by CO2 inhalation followed by rapid decapitation with a guillotine. Brains were isolated and immediately frozen on dry ice and stored at −80° C. The stereotaxic coordinates provided by Paxinos and colleague's rat brain stereotactic atlas was used to isolate NAc-core and NAc-shell using a cryostat apparatus (−20° C.), which then kept at −80° C. for later western blot analyses.
(§2) Western Blot assay was performed to measure changes in the expression of GLT-1, xCT, mGluR1, mGluR5, PPAR-α, PPARγ, GAPDH and β-tubulin in the NAc-core and NAc-shell as described in previous publications. A lysis buffer containing protease and phosphatase inhibitors was used to generate a homogenate of liver, Nac-core, and Nac-shell samples. The amount of protein was quantified using a detergent compatible protein assay (Bio-Rad, Hercules, CA, USA) for each sample. Samples were mixed with laemmli dye and loaded with equal amounts on polyacrylamide gels (10%), which separated the proteins using electrophoresis. After that, polyvinylidene difluoride (PVDF) membranes were used to transfer the proteins electrophoretically from the gels. Membranes were incubated in 5% free-fat milk in Tris-buffered saline with Tween-20 (TBST) for 30-60 minutes at room temperature. Membranes were then incubated with appropriate primary antibodies overnight at 4° C.: rabbit anti-GLT-1 (1:5000, Abcam, ab41621), rabbit anti-xCT (1:2000, Abcam, ab175186), rabbit anti-mGluR1 (1:1000, Abcam, ab82211), rabbit anti-mGluR5 (1:1000, Abcam, ab76316), rabbit anti-PPAR-α (1:1000, Abcam, ab24509), and rabbit anti-PPARγ (1:1000, Abcam, ab209350). Mouse anti-β-tubulin (1:1000; BioLegend) was used as a loading control antibody for the brain samples and rabbit anti-GAPDH (1:5000; cell signaling) was used as a loading control antibody for the liver samples. Membranes were washed five times on the next day with TBST followed by incubation with appropriate secondary antibody (1:5000) for 90 minutes at room temperature. Chemiluminescent reagents (Super Signal West Pico, Pierce Inc.) were used to detect the proteins using a GeneSys imaging system to develop the digitized blot images. Water-control group data were represented as 100% and all other values were expressed relative to control group to detect changes in the expression of the protein of interest in the brain and liver samples.
(§3) All statistical analyses were conducted with Graphpad Prism software, with p-values of 0.05 or less being statistically significant. […]

[1] = tested on: gram-positive and gram-negative bacteria; conditions: cited from earlier work
[2] = Ethanol intake, preference, water intake and body weight in male and female P rats (section B); type: in vivo, Male and female alcohol-preferring (P) rats; conditions: for Body weight / Ethanol consumption: 100 mg/kg; for Ethanol consumption / Ethanol preference / Water consumption: vs ethanol-saline group; for Ethanol preference / Water consumption: 100 mg/kg i.p.; for Ethanol preference: Day 1 through Day 5
Procedure: Male and female alcohol-preferring (P) rats were acquired from Indiana University School of Medicine, Indianapolis, IN at the age of 80-85 days. All animals were single housed in a room with temperature at 22° C. and 50% humidity in a 12 h light/dark cycle. Rats had free access to food and water throughout the experimental procedures. All the experimental procedures were approved by the University of Toledo Institutional Animal Care and Use Committee (IACUC) under IACUC protocol #400160.
At the age of 90-100 days, 5-7 male and female rats were assigned randomly to three groups: (1) Water-drinking (Water-Saline) group with no access to ethanol and served as a control group; (2) Ethanol-Saline group, which was exposed to continuous free-choice access to ethanol (15% and 30%, v/v, concurrently), and water for five weeks, and saline i.p. injections were performed from Days 1-5 on Week 6; and (3) Ethanol-MC-100093 group, which had continuous free-choice access to ethanol (15% and 30%, v/v), and water for five weeks, and MC-100093 i.p. injections were performed from Days 1-5 on Week 6. Ethanol and water intake were measured as g/kg/day. Rats were required to meet the criterion of an average ethanol consumption of 4 g/kg/day to be included in the study, for at least 2 weeks before saline vehicle or MC-100093 i.p. injections, as adopted in previous studies. Average ethanol and water consumptions throughout Week 5 served as a baseline. At Week 6 of the experiment, ethanol-MC-100093 group received MC-100093 at a dose of 100 mg/kg (i.p.) once daily for five days, and ethanol-saline and water-saline groups received saline vehicle as an i.p injection for five consecutive days. Water and ethanol were measured daily 24 hours after the first i.p. injections of saline or MC-100093 and 24 hours after the last i.p. injections of saline or MC-100093.
All statistical analyses were conducted using GraphPad Prism (10). Two-way (mixed) ANOVA followed by Bonferroni multiple comparison post-hoc test was performed to analyze daily ethanol intake, average daily water intake and body weight. One-way ANOVA followed by Newman-Keuls post hoc tests were used to analyze Western blot data. All statistical analyses data were reported as a p<0.05 of significance.
Ethanol preference was calculated as total ethanol consumption/total fluid consumption×100 from daily alcohol and water consumption.

PPAR-γ = assay: Western blot PPAR-γ expression in liver; type: in vivo, P rats; conditions: MC-100093 50 mg/kg or ceftriaxone 200 mg/kg i.p. 5 days; between all groups
Procedure: Western Blot assay was performed to measure changes in the expression of GLT-1, xCT, mGluR1, mGluR5, PPAR-α, PPARγ, GAPDH and β-tubulin in the NAc-core and NAc-shell as described in previous publications. A lysis buffer containing protease and phosphatase inhibitors was used to generate a homogenate of liver, Nac-core, and Nac-shell samples. The amount of protein was quantified using a detergent compatible protein assay (Bio-Rad, Hercules, CA, USA) for each sample. Samples were mixed with laemmli dye and loaded with equal amounts on polyacrylamide gels (10%), which separated the proteins using electrophoresis. After that, polyvinylidene difluoride (PVDF) membranes were used to transfer the proteins electrophoretically from the gels. Membranes were incubated in 5% free-fat milk in Tris-buffered saline with Tween-20 (TBST) for 30-60 minutes at room temperature. Membranes were then incubated with appropriate primary antibodies overnight at 4° C.: rabbit anti-GLT-1 (1:5000, Abcam, ab41621), rabbit anti-xCT (1:2000, Abcam, ab175186), rabbit anti-mGluR1 (1:1000, Abcam, ab82211), rabbit anti-mGluR5 (1:1000, Abcam, ab76316), rabbit anti-PPAR-α (1:1000, Abcam, ab24509), and rabbit anti-PPARγ (1:1000, Abcam, ab209350). […]

glutamate uptake = conditions: astrocyte-neuron co-culture model, cited from earlier work
PPAR-α = assay: Western blot PPAR-α expression in NAc-core, NAc-shell and liver; type: in vivo, P rats; conditions: MC-100093 50 mg/kg or ceftriaxone 200 mg/kg i.p. 5 days; among all groups
Procedure: as §1, §2, §3

[3] = female P rats, 100 mg/kg i.p. 5 days
[4] = male P rats, 100 mg/kg i.p. 5 days

C[C@@H](O)[C@H]1C(=O)N[C@@H]1[C@@H](C)C(=O)N1CCN(C)CC1 [MC-100093]
Protein expression of mGluR5 in the NAc-core (mGluR5; among all groups): non-significant difference; also recorded: no significant difference
Protein expression of mGluR5 in the NAc-shell (mGluR5; vs control or ethanol groups): no significant change in the expression of mGluR5; also recorded: significantly downregulated in ethanol group compared to control, Ethanol-MC (50 mg/kg), and Ethanol-CEF (200 mg/kg) groups; also recorded: normalizing levels of mGluR5
Antimicrobial / antibiotic activity [1]: without any antibiotic action; also recorded: no antibiotic activity; also recorded: no antibiotic actions; also recorded: lacking the antibacterial properties; also recorded: lacks antimicrobial activity; also recorded: does not have any antibiotic action
Attenuation effect on ethanol consumption, male compared with female P rats ([2]; 100 mg/kg i.p. 5 days): higher attenuation effect on ethanol consumption in male P rats exceeding female P rats
Body weight [2, 3]: no significant effect on body weights; also recorded: no effect on the body weight
Ethanol consumption [2, 3]: reduced ethanol consumption in both male and female P rats from Day 1-5; also recorded: significant decrease in ethanol consumption from Day 1 through Day 5; also recorded: decreased ethanol consumption in male and female P rats
Ethanol preference ([2]; female P rats): significant decrease in percent ethanol preference
Water consumption ([2]; female P rats): significant increase in water consumption from Day 1 through Day 5
Body weight [2, 4]: no significant effect on body weights; also recorded: no effect on the body weight
Ethanol consumption [2, 4]: reduced ethanol consumption in both male and female P rats from Day 1-5; also recorded: significant decrease in ethanol consumption from Day 1 through Day 5; also recorded: decreased ethanol consumption in male and female P rats
Ethanol preference ([2]; male P rats): significant decrease in percent ethanol preference
Water consumption ([2]; male P rats): significant increase in water consumption from treatment Day 1 through Day 5
Protein expression of PPAR-γ in the liver (PPAR-γ): not changed significantly
Enhancement of glutamate uptake (glutamate uptake): 23.5%
pIC50 (glutamate uptake; read-out: IC50 (enhancement of glutamate uptake)): 7.00
Protein expression of PPAR-α in the NAc-core (PPAR-α): non-significant differences; also recorded: did not detect significant changes
Protein expression of PPAR-α in the NAc-shell (PPAR-α): non-significant differences; also recorded: did not detect significant changes
